Experimental data published in patent publication US12679836B2, “4H-pyrrolo[3,2-c]pyridin-4-one compounds” (Bayer Aktiengesellschaft, priority 2019, dated 2026).
Where two headings read alike, the source gives them in different places.

Assays:
[1] = target: Ba/F3-EGFR-WT cells (Homo sapiens, UniProt P00533); assay: Ba/F3 cell survival assay (Cell Titer-Glo), WT EGFR; type: cell-based; settings: without IL-3, with 10 ng/mL EGF, 48 h; read-out: BA/F3 (wild type) IC50
Method: (§1) 293T cells from ATCC were transfected with pBABEpuro expression constructs for WT EGFR or EGFR-insSVD and pCL-Eco packaging vector using Fugene-6 transfection reagent from Promega. Plates were incubated at 37° C. for 48 h. Retrovirus was harvested by filtering the media supernatant through a 0.45 μm filter.
(§2) Ba/F3 cells purchased from DSMZ were grown in RPMI+10% FBS+10 ng/mL IL-3 and infected with filtered retroviral supernatant at a 1:2 dilution. Polybrene was added to a concentration of 8 μg/mL, plates were spun for 90 min, and incubated overnight at 37° C. 2 μg/mL puromycin was added to the infected cells 24 h after infection and cells were continually grown in the presence of puromycin and 10 ng/mL IL-3. Following stably expressing Ba/F3 cell lines were generated: Ba/F3-EGFR-WT, Ba/F3-EGFR-insSVD, (Ba/F3-vector-control).
(§3) For cell survival assays, Ba/F3 cells were grown to a density of 1-2 million cells per mL, spun down and resuspended in media without IL-3, and replated at a concentration 200,000-500,000 cells per mL. The cells ectopically expressing WT EGFR or EGFR-insSVD were plated with 10 ng/mL Millipore Culture grade EGF. The cells ectopically expressing pBABEpuro empty vector were plated with 10 ng/mL IL-3. 2 days later, cells were plated in 50 μL in a 384 well plate at a concentration of 4000 cells per well for cells assayed in the absence of IL-3 and 2000 cells per well for cells assayed in the presence of IL-3. 100 nL of compound was added to each well using a 100 nL pin head, and plates were incubated at 37° C. for 48 h.
(§4) Cell viability was measured by adding 20 μL of Cell Titer-Glo Luminescent Cell Viability Reagent diluted 1:3 in PBS. Plates were sealed with Perkin Elmer Top-Seal, inverted several times to mix, and immediately centrifuged at 1000 rpm for 2 min. Plates were incubated in low light conditions for 8-10 min and luminescence was measured.

[2] = target: T1, EGFR with insertion of SVD between D770 and N771 (EGFR ins SVD) (Homo sapiens, UniProt P00533, DUP768-770); assay: Exon20-Mutant-EGFR(D770_N771insSVD) kinase assay (TR-FRET); type: biochemical; settings: 2 mM ATP, several values per example where printed
T1 construct: made in house; host or cells: Sf9 insect cells (baculovirus)
T1 sequence (P00533 with tags, fused parts or gaps DUP768-770): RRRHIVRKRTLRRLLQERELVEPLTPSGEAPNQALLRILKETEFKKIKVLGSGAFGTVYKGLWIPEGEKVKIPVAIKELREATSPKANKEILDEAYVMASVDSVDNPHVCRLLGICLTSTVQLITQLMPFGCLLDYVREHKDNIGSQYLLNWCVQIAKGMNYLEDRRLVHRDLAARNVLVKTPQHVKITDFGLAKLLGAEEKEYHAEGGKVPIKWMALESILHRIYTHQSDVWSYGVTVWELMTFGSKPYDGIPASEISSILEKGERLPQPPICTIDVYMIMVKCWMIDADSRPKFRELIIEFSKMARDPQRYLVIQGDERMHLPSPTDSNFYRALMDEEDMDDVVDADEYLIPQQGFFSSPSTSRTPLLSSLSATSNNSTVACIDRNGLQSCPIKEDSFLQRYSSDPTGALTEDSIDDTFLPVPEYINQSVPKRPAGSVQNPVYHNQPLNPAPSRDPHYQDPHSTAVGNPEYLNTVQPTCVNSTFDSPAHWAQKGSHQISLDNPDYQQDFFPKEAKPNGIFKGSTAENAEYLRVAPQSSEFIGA

[3] = target: Ba/F3-EGFR-insSVD cells (Homo sapiens, UniProt P00533, DUP768-770, cells depend on it); assay: Ba/F3 cell survival assay (Cell Titer-Glo), EGFR-insSVD; type: cell-based; settings: without IL-3, with 10 ng/mL EGF, 48 h; read-out: BA/F3 (insSVD) IC50
Ba/F3-EGFR-insSVD cells, sequence (P00533 with tags, fused parts or gaps DUP768-770): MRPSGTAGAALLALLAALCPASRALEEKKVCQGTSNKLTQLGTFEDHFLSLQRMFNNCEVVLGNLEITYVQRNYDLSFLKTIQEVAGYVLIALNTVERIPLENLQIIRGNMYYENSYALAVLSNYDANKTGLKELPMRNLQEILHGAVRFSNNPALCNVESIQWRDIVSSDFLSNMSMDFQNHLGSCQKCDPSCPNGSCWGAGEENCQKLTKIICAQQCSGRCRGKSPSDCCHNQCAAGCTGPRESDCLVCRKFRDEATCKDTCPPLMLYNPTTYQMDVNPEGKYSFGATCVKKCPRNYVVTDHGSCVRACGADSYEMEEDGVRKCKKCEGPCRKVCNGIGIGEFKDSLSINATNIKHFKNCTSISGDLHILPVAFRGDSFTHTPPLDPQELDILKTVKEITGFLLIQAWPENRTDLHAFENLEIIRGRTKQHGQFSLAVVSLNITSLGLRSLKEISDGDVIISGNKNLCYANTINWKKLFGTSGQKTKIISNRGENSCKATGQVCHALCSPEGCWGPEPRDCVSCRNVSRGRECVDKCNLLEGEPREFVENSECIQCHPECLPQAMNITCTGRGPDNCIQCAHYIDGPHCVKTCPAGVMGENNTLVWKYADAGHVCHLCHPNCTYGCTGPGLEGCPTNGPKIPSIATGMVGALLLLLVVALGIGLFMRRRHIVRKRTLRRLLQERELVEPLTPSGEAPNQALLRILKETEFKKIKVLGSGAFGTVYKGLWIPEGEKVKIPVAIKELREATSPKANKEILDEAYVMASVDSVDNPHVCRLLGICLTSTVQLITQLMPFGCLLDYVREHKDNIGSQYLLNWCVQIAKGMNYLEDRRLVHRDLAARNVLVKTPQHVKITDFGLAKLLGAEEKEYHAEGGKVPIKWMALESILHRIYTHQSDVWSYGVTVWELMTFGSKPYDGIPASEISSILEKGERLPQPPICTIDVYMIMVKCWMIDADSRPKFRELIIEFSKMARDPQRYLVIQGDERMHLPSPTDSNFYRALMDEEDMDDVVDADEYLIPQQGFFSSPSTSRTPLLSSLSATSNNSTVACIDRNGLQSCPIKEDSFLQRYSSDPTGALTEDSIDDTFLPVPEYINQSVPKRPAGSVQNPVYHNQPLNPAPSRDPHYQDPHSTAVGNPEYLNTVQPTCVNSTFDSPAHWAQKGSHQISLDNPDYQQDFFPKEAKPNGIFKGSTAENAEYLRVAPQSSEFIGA
Method: as §1, §2, §3, §4

[4] = target: T2, Bub1 (Homo sapiens, UniProt O43683); assay: Bub1 TR-FRET high ATP kinase assay; type: biochemical; settings: 2 mM ATP
T2 construct: catalytic domain of human Bub1 (amino acids 704-1085); His6 (N); made in house; host or cells: Hi5 insect cells
T2 sequence (O43683 704-1085): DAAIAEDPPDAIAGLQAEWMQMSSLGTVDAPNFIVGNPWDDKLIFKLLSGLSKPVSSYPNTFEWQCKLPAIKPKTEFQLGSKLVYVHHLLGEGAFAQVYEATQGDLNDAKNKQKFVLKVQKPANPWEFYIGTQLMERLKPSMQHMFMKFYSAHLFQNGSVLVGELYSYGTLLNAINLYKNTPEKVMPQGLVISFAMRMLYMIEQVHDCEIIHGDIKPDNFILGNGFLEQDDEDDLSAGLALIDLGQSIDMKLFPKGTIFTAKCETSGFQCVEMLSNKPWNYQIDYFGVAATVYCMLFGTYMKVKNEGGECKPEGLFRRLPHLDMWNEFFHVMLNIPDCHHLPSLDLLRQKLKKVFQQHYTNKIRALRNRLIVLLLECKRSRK
Excerpt: Bub1 High ATP Kinase Assay
Bub1-inhibitory activity of compounds of the present invention at a high ATP concentration was quantified employing the Bub1 TR-FRET high ATP kinase assay as described in the following paragraphs.
N-terminally His6-tagged recombinant catalytic domain of human Bub1 (amino acids 704-1085), expressed in insect cells (Hi5) and purified by Ni-NTA affinity chromatography and subsequent size exclusion chromatography, was used as enzyme. As substrate for the kinase reaction the biotinylated peptide biotin-Ahx-[…]—SEQ ID 7 (C-terminus in amid form) was used which can be purchased e.g. form the company Biosyntan (Berlin, Germany).

[5] = Bub1 high ATP (2 mM) IC50 [mol/l]
[6] = read-out: Bub1 high ATP (2 mM) IC50 [mol/l]

Ba/F3-EGFR-WT cells, sequence (P00533 whole entry, stated change not applied): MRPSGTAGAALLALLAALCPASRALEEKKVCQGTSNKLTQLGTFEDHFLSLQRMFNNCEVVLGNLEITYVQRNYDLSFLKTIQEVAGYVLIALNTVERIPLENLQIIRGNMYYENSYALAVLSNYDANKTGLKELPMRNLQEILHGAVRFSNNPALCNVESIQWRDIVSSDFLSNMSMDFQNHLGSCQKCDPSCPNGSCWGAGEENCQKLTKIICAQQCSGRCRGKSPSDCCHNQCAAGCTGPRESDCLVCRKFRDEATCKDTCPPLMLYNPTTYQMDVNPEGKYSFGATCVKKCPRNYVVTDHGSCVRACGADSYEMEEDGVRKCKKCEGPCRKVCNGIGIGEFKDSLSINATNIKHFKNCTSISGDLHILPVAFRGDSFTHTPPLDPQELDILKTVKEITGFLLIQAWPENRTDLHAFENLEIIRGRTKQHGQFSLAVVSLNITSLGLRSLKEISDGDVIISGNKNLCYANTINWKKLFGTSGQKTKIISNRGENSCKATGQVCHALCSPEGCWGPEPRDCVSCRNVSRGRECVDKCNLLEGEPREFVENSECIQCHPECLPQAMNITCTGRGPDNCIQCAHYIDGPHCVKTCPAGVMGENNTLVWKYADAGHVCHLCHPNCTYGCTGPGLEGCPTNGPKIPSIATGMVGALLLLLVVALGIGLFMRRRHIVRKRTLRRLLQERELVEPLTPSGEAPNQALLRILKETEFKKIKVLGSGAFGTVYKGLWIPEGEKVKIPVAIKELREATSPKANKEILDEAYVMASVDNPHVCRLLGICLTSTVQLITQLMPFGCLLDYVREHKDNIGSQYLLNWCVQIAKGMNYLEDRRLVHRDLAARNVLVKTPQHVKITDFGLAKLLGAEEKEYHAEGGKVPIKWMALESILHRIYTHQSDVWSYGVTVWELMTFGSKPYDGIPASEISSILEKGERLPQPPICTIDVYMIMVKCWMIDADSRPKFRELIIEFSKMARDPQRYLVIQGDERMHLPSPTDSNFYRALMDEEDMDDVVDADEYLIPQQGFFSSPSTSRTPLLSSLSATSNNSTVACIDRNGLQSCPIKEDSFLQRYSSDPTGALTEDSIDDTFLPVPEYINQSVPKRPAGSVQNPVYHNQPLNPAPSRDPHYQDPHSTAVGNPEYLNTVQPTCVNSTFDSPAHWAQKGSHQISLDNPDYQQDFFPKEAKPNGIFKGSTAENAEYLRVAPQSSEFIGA

mutEGFR (D770_N771insSVD) kinase assay IC50 [2] | IC50 [4, 5] | IC50 [4, 6] | Structure (SMILES) | GI50 [1] | GI50 [3]
0.265 nM | > 20000 nM |  | Cc1c(F)cccc1Nc1c(-c2ccncc2OCC2CN(C)CCO2)[nH]c2c1C(=O)NCC2 (single isomer, unassigned) [Example 63, 3-(3-fluoro-2-methylanilino)-2-(3-{[4-methylmorpholin-2-yl]methoxy}pyridin-4-yl)-1,5,6,7-tetrahydro-4H-pyrrolo[3,2-c]pyridin-4-one] | 1370 nM | 147 nM
0.226 nM | 729 nM |  | CCc1c(Cl)cccc1Nc1c(-c2ccncc2OCC2COCCO2)[nH]c2c1C(=O)NCC2 (centres unmarked) [Example 52, 3-(3-chloro-2-ethyl-anilino)-2-[3-(1,4-dioxan-2-ylmethoxy)-4-pyridyl]-1,5,6,7-tetrahydropyrrolo[3,2-c]pyridin-4-one] | 547 nM | 13.4 nM
0.405 nM | > 20000 nM |  | COc1c(Cl)cccc1Nc1c(-c2ccncc2OC(C)C2CN(C)CCO2)[nH]c2c1C(=O)NCC2 (centres unmarked) [Example 71, 3-(3-chloro-2-methoxyanilino)-2-[3-({1-[4-methylmorpholin-2-yl]ethyl}oxy)pyridin-4-yl]-1,5,6,7-tetrahydro-4H-pyrrolo[3,2-c]pyridin-4-one] | 1420 nM | 132 nM
0.156 nM |  | > 20000 nM | COc1c(Cl)cccc1Nc1c(-c2ccncc2OCC2CN(C)CCO2)[nH]c2c1C(=O)NCC2 (single isomer, unassigned) [Example 17, 3-(3-chloro-2-methoxyanilino)-2-(3-{[4-methylmorpholin-2-yl]methoxy}pyridin-4-yl)-1,5,6,7-tetrahydro-4H-pyrrolo[3,2-c]pyridin-4-one] | 231 nM | 9.53 nM
0.661 nM |  | > 20000 nM | COc1c(Cl)cccc1Nc1c(-c2ccncc2OC(C)C2CN(C)CCO2)[nH]c2c1C(=O)NCC2 (single isomer, unassigned) [Example 74, 3-(3-chloro-2-methoxyanilino)-2-[3-({1-[-4-methylmorpholine-2-yl]ethyl}oxy)pyridin-4-yl]-1,5,6,7-tetrahydro-4H-pyrrolo[3,2-c]pyridin-4-one] | 828 nM | 51.1 nM
0.193 nM |  | > 20000 nM | COc1c(F)cccc1Nc1c(-c2ccncc2OCC2COC(C)(C)CO2)[nH]c2c1C(=O)NCC2 (single isomer, unassigned) [Example 34, 2-(3-{[5,5-dimethyl-1,4-dioxan-2-yl]methoxy}pyridin-4-yl)-3-(3-fluoro-2-methoxyanilino)-1,5,6,7-tetrahydro-4H-pyrrolo[3,2-c]pyridin-4-one] | 204 nM | 12 nM
0.237 nM | > 20000 nM |  | Cc1c(F)cccc1Nc1c(-c2ccncc2OCC2CN(C)CCO2)[nH]c2c1C(=O)NCC2 (centres unmarked) [Example 62, 3-(3-fluoro-2-methylanilino)-2-(3-{[4-methylmorpholin-2-yl]methoxy}pyridin-4-yl)-1,5,6,7-tetrahydro-4H-pyrrolo[3,2-c]pyridin-4-one] | 697 nM | 26.7 nM
0.291 nM | > 20000 nM |  | CN1CCO[C@H](COc2cnccc2-c2[nH]c3c(c2Nc2cccc(F)c2CC(F)F)C(=O)NCC3)C1 [Example 41, 3-[2-(2,2-difluoroethyl)-3-fluoroanilino]-2-(3-{[(2S)-4-methylmorpholin-2-yl]methoxy}pyridin-4-yl)-1,5,6,7-tetrahydro-4H-pyrrolo[3,2-c]pyridin-4-one] | 695 nM | 77.5 nM
0.136 nM | 1520 nM |  | Cc1c(Cl)cccc1Nc1c(-c2ccncc2OC[C@H]2COCCO2)[nH]c2c1C(=O)NCC2 (single isomer, unassigned) [Example 51] | 742 nM | 46.7 nM
0.235 nM | 12200 nM |  | COc1c(Cl)cccc1Nc1c(-c2ccncc2O[C@@H](C)C2COCCO2)[nH]c2c1C(=O)NCC2 (single isomer, unassigned) [Example 59, 3-(3-chloro-2-methoxyanilino)-2-{3-[(1 S)-1-(1,4-dioxan-2-yl)ethoxy]pyridin-4-yl}-1,5,6,7-tetrahydro-4H-pyrrolo[3,2-c]pyridin-4-one] | 336 nM | 18.6 nM
0.187 nM |  | > 20000 nM | Cc1c(F)cccc1Nc1c(-c2ccncc2OCC2CN(C)CCO2)[nH]c2c1C(=O)NCC2 (single isomer, unassigned) [Example 64, 3-(3-fluoro-2-methylanilino)-2-(3-{[4-methylmorpholin-2-yl]methoxy}pyridin-4-yl)-1,5,6,7-tetrahydro-4H-pyrrolo[3,2-c]pyridin-4-one] | 271 nM | 7.58 nM
0.169 nM | > 20000 nM |  | COc1c(F)cccc1Nc1c(-c2ccncc2OC[C@@H]2CN(CC(F)(F)F)CCO2)[nH]c2c1C(=O)NCC2 [Example 23, 3-(3-fluoro-2-methoxyanilino)-2-(3-{[(2S)-4-(2,2,2-trifluoroethyl)morpholin-2-yl]methoxy}pyridin-4-yl)-1,5,6,7-tetrahydro-4H-pyrrolo[3,2-c]pyridin-4-one] | 648 nM | 71 nM
0.119 nM | > 5710 nM |  | Cc1c(F)cccc1Nc1c(-c2ccncc2OCC2COC(C)(C)CO2)[nH]c2c1C(=O)NCC2 (centres unmarked) [Example 38, 2-[3-[(5,5-dimethyl-1,4-dioxan-2-yl)methoxy]-4-pyridyl]-3-(3-fluoro-2-methyl-anilino)-1,5,6,7-tetrahydropyrrolo[3,2-c]pyridin-4-one] | 419 nM | 29.3 nM
0.113 nM | 11400 nM |  | COc1c(Cl)cc(F)cc1Nc1c(-c2ccncc2OCC2COCCO2)[nH]c2c1C(=O)NCC2 (centres unmarked) [Example 19, 3-(3-chloro-5-fluoro-2-methoxyanilino)-2-(3-{[1,4-dioxan-2-yl]methoxy}pyridin-4-yl)-1,5,6,7-tetrahydro-4H-pyrrolo[3,2-c]pyridin-4-one] | 532 nM | 29.1 nM
0.282 nM | > 20000 nM |  | COc1c(Cl)cccc1Nc1c(-c2ccncc2OCCC2COCCO2)[nH]c2c1C(=O)NCC2 (single isomer, unassigned) [Example 25, 3-(3-chloro-2-methoxyanilino)-2-{3-[2-(4-dioxan-2-yl)ethoxy]pyridin-4-yl}-1,5,6,7-tetrahydro-4H-pyrrolo[3,2-c]pyridin-4-one] | 349 nM | 18.3 nM
0.147 nM | > 20000 nM |  | COc1c(Cl)cc(F)cc1Nc1c(-c2ccncc2OCC2CN(C)CCO2)[nH]c2c1C(=O)NCC2 (centres unmarked) [Example 18, 3-(3-chloro-5-fluoro-2-methoxyanilino)-2-(3-{[4-methylmorpholin-2-yl]methoxy}pyridin-4-yl)-1,5,6,7-tetrahydro-4H-pyrrolo[3,2-c]pyridin-4-one] | 579 nM | 27.9 nM
1.12 nM |  | > 20000 nM | COc1c(Cl)cccc1Nc1c(-c2ccncc2OC(C)C2CN(C)CCO2)[nH]c2c1C(=O)NCC2 (single isomer, unassigned) [Example 73, 3-(3-chloro-2-methoxyanilino)-2-[3-({1-[4-methylmorpholin-2-yl]ethyl}oxy)pyridin-4-yl]-1,5,6,7-tetrahydro-4H-pyrrolo[3,2-c]pyridin-4-one] | 1280 nM | 78 nM
